Assay results taken from PubChem BioAssay AID1259407 (Chemical Carcinogenesis Research Information System (CCRIS), 2018).
Active and inactive are the calls of the source. The rule behind the calls is not given here.

System: CCRIS mutagenicity, Ames/micronucleus/aberration tests
Experiment: CCRIS mutagenicity studies
Conditions: Test System: AMES SALMONELLA TYPHIMURIUM
[1] = Strain/Indicator: TA98, Metabolic Activation: HAMSTER, LIVER, S-9, AROCLOR 1254 (10%), Method: PREINCUBATION
[2] = Strain/Indicator: TA98, Metabolic Activation: NONE, Method: PREINCUBATION
[3] = Strain/Indicator: TA98, Metabolic Activation: RAT, LIVER, S-9, AROCLOR 1254 (10%), Method: PREINCUBATION
[4] = Strain/Indicator: TA100, Metabolic Activation: HAMSTER, LIVER, S-9, AROCLOR 1254 (10%), Method: PREINCUBATION
[5] = Strain/Indicator: TA100, Metabolic Activation: NONE, Method: PREINCUBATION
[6] = Strain/Indicator: TA100, Metabolic Activation: RAT, LIVER, S-9, AROCLOR 1254 (10%), Method: PREINCUBATION
[7] = Strain/Indicator: TA1535, Metabolic Activation: HAMSTER, LIVER, S-9, AROCLOR 1254 (10%), Method: PREINCUBATION
[8] = Strain/Indicator: TA1535, Metabolic Activation: NONE, Method: PREINCUBATION
[9] = Strain/Indicator: TA1535, Metabolic Activation: RAT, LIVER, S-9, AROCLOR 1254 (10%), Method: PREINCUBATION
[10] = Strain/Indicator: TA1537, Metabolic Activation: NONE, Method: PREINCUBATION
[11] = Strain/Indicator: TA98, Metabolic Activation: NONE, Method: STANDARD PLATE
[12] = Strain/Indicator: TA98, Metabolic Activation: RAT, LIVER, S-9, AROCLOR 1254, Method: STANDARD PLATE
[13] = Strain/Indicator: TA97, Metabolic Activation: NONE, Method: PREINCUBATION

Measured: mutagenic call

CC(C)CNCC(C)C
inactive: [1] inactive; negative | [2] inactive; negative | [3] inactive; negative | [4] inactive; negative | [5] inactive; negative | [6] inactive; negative | [7] inactive; negative | [8] inactive; negative | [9] inactive; negative | Strain/Indicator: TA1537, Metabolic Activation: HAMSTER, LIVER, S-9, AROCLOR 1254 (10%), Method: PREINCUBATION inactive; negative | [10] inactive; negative | Strain/Indicator: TA1537, Metabolic Activation: RAT, LIVER, S-9, AROCLOR 1254 (10%), Method: PREINCUBATION inactive; negative

O=[N+]([O-])c1cnc2c(c1)nc1ccccn12
active: [11] active; positive | Strain/Indicator: TA98, Metabolic Activation: RAT, LIVER, CYTOSOL, AROCLOR 1254, Method: STANDARD PLATE active; positive | Strain/Indicator: TA98, Metabolic Activation: RAT, LIVER, MICROSOMES, AROCLOR 1254, Method: STANDARD PLATE active; positive | [12] active; positive

O=C(c1ccccc1)n1ncc(Cl)c(Cl)c1=O
inactive: [11] inactive; negative | [12] inactive; negative | Strain/Indicator: TA100, Metabolic Activation: NONE, Method: STANDARD PLATE inactive; negative | Strain/Indicator: TA100, Metabolic Activation: RAT, LIVER, S-9, AROCLOR 1254, Method: STANDARD PLATE inactive; negative | Strain/Indicator: TA1535, Metabolic Activation: NONE, Method: STANDARD PLATE inactive; negative | Strain/Indicator: TA1535, Metabolic Activation: RAT, LIVER, S-9, AROCLOR 1254, Method: STANDARD PLATE inactive; negative | Strain/Indicator: TA1537, Metabolic Activation: NONE, Method: STANDARD PLATE inactive; negative | Strain/Indicator: TA1537, Metabolic Activation: RAT, LIVER, S-9, AROCLOR 1254, Method: STANDARD PLATE inactive; negative

COc1ccc2c3c1O[C@H]1[C@@H](O)C=C[C@H]4[C@@H](C2)N(C)CC[C@@]341
inactive: Strain/Indicator: TA97, Metabolic Activation: HAMSTER, LIVER, S-9, AROCLOR 1254 (10 OR 30%), Method: PREINCUBATION inactive; negative | [13] inactive; negative | Strain/Indicator: TA97, Metabolic Activation: RAT, LIVER, S-9, AROCLOR 1254 (10 OR 30%), Method: PREINCUBATION inactive; negative | Strain/Indicator: TA98, Metabolic Activation: HAMSTER, LIVER, S-9, AROCLOR 1254 (10 OR 30%), Method: PREINCUBATION inactive; negative | [2] inactive; negative | Strain/Indicator: TA98, Metabolic Activation: RAT, LIVER, S-9, AROCLOR 1254 (10 OR 30%), Method: PREINCUBATION inactive; negative | Strain/Indicator: TA100, Metabolic Activation: HAMSTER, LIVER, S-9, AROCLOR 1254 (10 OR 30%), Method: PREINCUBATION inactive; negative | [5] inactive; negative | Strain/Indicator: TA100, Metabolic Activation: RAT, LIVER, S-9, AROCLOR 1254 (10 OR 30%), Method: PREINCUBATION inactive; negative | Strain/Indicator: TA1535, Metabolic Activation: HAMSTER, LIVER, S-9, AROCLOR 1254 (10 OR 30%), Method: PREINCUBATION inactive; negative | [8] inactive; negative | Strain/Indicator: TA1535, Metabolic Activation: RAT, LIVER, S-9, AROCLOR 1254 (10 OR 30%), Method: PREINCUBATION inactive; negative

C=CC(C)C#N (centres undefined)
inactive: Strain/Indicator: TA97, Metabolic Activation: HAMSTER, LIVER, S-9, AROCLOR 1254 (5 OR 30%), Method: PREINCUBATION inactive; negative | Strain/Indicator: TA97, Metabolic Activation: HAMSTER, LIVER, S-9, AROCLOR 1254 (10%), Method: PREINCUBATION inactive; negative | [13] inactive; negative | Strain/Indicator: TA97, Metabolic Activation: RAT, LIVER, S-9, AROCLOR 1254 (10%), Method: PREINCUBATION inactive; negative | Strain/Indicator: TA97, Metabolic Activation: RAT, LIVER, S-9, AROCLOR 1254 (30%), Method: PREINCUBATION inactive; negative | [1] inactive; negative | Strain/Indicator: TA98, Metabolic Activation: HAMSTER, LIVER, S-9, AROCLOR 1254 (30%), Method: PREINCUBATION inactive; negative | [2] inactive; negative | [3] inactive; negative | Strain/Indicator: TA98, Metabolic Activation: RAT, LIVER, S-9, AROCLOR 1254 (30%), Method: PREINCUBATION inactive; negative | [4] inactive; negative | Strain/Indicator: TA100, Metabolic Activation: HAMSTER, LIVER, S-9, AROCLOR 1254 (30%), Method: PREINCUBATION inactive; negative | [5] inactive; negative | [6] inactive; negative | Strain/Indicator: TA100, Metabolic Activation: RAT, LIVER, S-9, AROCLOR 1254 (30%), Method: PREINCUBATION inactive; negative | [7] inactive; negative | Strain/Indicator: TA1535, Metabolic Activation: HAMSTER, LIVER, S-9, AROCLOR 1254 (30%), Method: PREINCUBATION inactive; negative | [8] inactive; negative | [9] inactive; negative | Strain/Indicator: TA1535, Metabolic Activation: RAT, LIVER, S-9, AROCLOR 1254 (30%), Method: PREINCUBATION inactive; negative | Strain/Indicator: TA1537, Metabolic Activation: HAMSTER, LIVER, S-9, AROCLOR 1254 (30%), Method: PREINCUBATION inactive; negative | [10] inactive; negative | Strain/Indicator: TA1537, Metabolic Activation: RAT, LIVER, S-9, AROCLOR 1254 (30%), Method: PREINCUBATION inactive; negative
